According to the supplement of paper PMC10307832:

Legend:
Assay in all cases: relative viability (nuclei count vs DMSO), 5 days (fraction); higher = more cells survive
NCI-H1975 = tested on: NCI-H1975
Method in brief: (§1)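 Lung cancer cell lines, seeded in 1536-well plates, were treated the following day by pin tool with a single drug or with five library-drug doses (not always all listed) in √10 steps on top of a fixed anchor-drug dose. Cells were fixed and nuclei stained in one step after 5 days, and nuclei were counted. Relative viability is the nuclei count for treated wells divided by that for vehicle wells, reported as medians of duplicate plates.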

NCI-H358 = tested on: NCI-H358
Method in brief: as §1

NCI-H2342 = tested on: NCI-H2342
Method in brief: as §1

HCC-15 = tested on: HCC-15
Method in brief: as §1

NCI-H647 = tested on: NCI-H647
Method in brief: as §1

HOP-62 = tested on: HOP-62
Method in brief: as §1

NCI-H2126 = tested on: NCI-H2126
Method in brief: as §1

RERF-LC-KJ = tested on: RERF-LC-KJ
Method in brief: as §1

A-427 = tested on: A-427
Method in brief: as §1

NCI-H1915 = tested on: NCI-H1915
Method in brief: as §1

HCC-78 = tested on: HCC-78
Method in brief: as §1

NCI-H2347 = tested on: NCI-H2347
Method in brief: as §1

LC-2-ad = tested on: LC-2-ad
Method in brief: as §1

NCI-H1734 = tested on: NCI-H1734
Method in brief: as §1

NCI-H522 = tested on: NCI-H522
Method in brief: as §1

LXF-289 = tested on: LXF-289
Method in brief: as §1

NCI-H1792 = tested on: NCI-H1792
Method in brief: as §1

NCI-H1755 = tested on: NCI-H1755
Method in brief: as §1

PC-3 [JPC-3] = tested on: PC-3 [JPC-3]
Method in brief: as §1

Compound: CCN(CC)CCCCNc1ncc2cc(-c3cc(OC)cc(OC)c3)c(NC(=O)NC(C)(C)C)nc2n1 + NC(=O)Nc1cc(-c2cccc(F)c2)sc1C(=O)N[C@H]1CCCNC1 [AZD7762] (partner 0.2 µM)
- relative viability (NCI-H1975; first compound 0.01 µM): 0.684
- relative viability (NCI-H1975; first compound 0.03162 µM): 0.676
- relative viability (NCI-H1975; first compound 0.1 µM): 0.776
- relative viability (NCI-H1975; first compound 0.3162 µM): 0.818
- relative viability (NCI-H1975; first compound 1 µM): 0.601
- relative viability (NCI-H358; first compound 0.01 µM): 0.444
- relative viability (NCI-H358; first compound 0.03162 µM): 0.52
- relative viability (NCI-H358; first compound 0.1 µM): 0.593
- relative viability (NCI-H358; first compound 0.3162 µM): 0.64
- relative viability (NCI-H358; first compound 1 µM): 0.395
- relative viability (NCI-H2342; first compound 0.01 µM): 0.44
- relative viability (NCI-H2342; first compound 0.03162 µM): 0.511
- relative viability (NCI-H2342; first compound 0.1 µM): 0.482
- relative viability (NCI-H2342; first compound 0.3162 µM): 0.558
- relative viability (NCI-H2342; first compound 1 µM): 0.485
- relative viability (HCC-15; first compound 0.01 µM): 1.22
- relative viability (HCC-15; first compound 0.03162 µM): 1.17
- relative viability (HCC-15; first compound 0.1 µM): 1.22
- relative viability (HCC-15; first compound 0.3162 µM): 1.37
- relative viability (HCC-15; first compound 1 µM): 1.12
- relative viability (NCI-H647; first compound 0.01 µM): 0.272
- relative viability (NCI-H647; first compound 0.03162 µM): 0.612
- relative viability (NCI-H647; first compound 0.1 µM): 0.495
- relative viability (NCI-H647; first compound 0.3162 µM): 0.476
- relative viability (NCI-H647; first compound 1 µM): 0.247
- relative viability (HOP-62; first compound 0.01 µM): 0.343
- relative viability (HOP-62; first compound 0.03162 µM): 0.666
- relative viability (HOP-62; first compound 0.1 µM): 0.939
- relative viability (HOP-62; first compound 0.3162 µM): 0.684
- relative viability (HOP-62; first compound 1 µM): 0.431
- relative viability (NCI-H2126; first compound 0.01 µM): 0.976
- relative viability (NCI-H2126; first compound 0.03162 µM): 1
- relative viability (NCI-H2126; first compound 0.1 µM): 1.15
- relative viability (NCI-H2126; first compound 0.3162 µM): 1.13
- relative viability (NCI-H2126; first compound 1 µM): 1.01
- relative viability (RERF-LC-KJ; first compound 0.01 µM): 0.919
- relative viability (RERF-LC-KJ; first compound 0.03162 µM): 1.04
- relative viability (RERF-LC-KJ; first compound 0.1 µM): 0.983
- relative viability (RERF-LC-KJ; first compound 0.3162 µM): 1.28
- relative viability (RERF-LC-KJ; first compound 1 µM): 1.1
- relative viability (A-427; first compound 0.01 µM): 0.722
- relative viability (A-427; first compound 0.03162 µM): 0.671
- relative viability (A-427; first compound 0.1 µM): 0.778
- relative viability (A-427; first compound 0.3162 µM): 0.549
- relative viability (A-427; first compound 1 µM): 0.421
- relative viability (NCI-H1915; first compound 0.01 µM): 0.655
- relative viability (NCI-H1915; first compound 0.03162 µM): 0.753
- relative viability (NCI-H1915; first compound 0.1 µM): 0.708
- relative viability (NCI-H1915; first compound 0.3162 µM): 0.757
- relative viability (NCI-H1915; first compound 1 µM): 0.736
- relative viability (HCC-78; first compound 0.01 µM): 0.394
- relative viability (HCC-78; first compound 0.03162 µM): 0.647
- relative viability (HCC-78; first compound 0.1 µM): 0.726
- relative viability (HCC-78; first compound 0.3162 µM): 0.745
- relative viability (HCC-78; first compound 1 µM): 0.549
- relative viability (NCI-H2347; first compound 0.01 µM): 0.737
- relative viability (NCI-H2347; first compound 0.03162 µM): 0.622
- relative viability (NCI-H2347; first compound 0.1 µM): 0.842
- relative viability (NCI-H2347; first compound 0.3162 µM): 0.748
- relative viability (NCI-H2347; first compound 1 µM): 0.684
- relative viability (LC-2-ad; first compound 0.01 µM): 0.878
- relative viability (LC-2-ad; first compound 0.03162 µM): 0.798
- relative viability (LC-2-ad; first compound 0.1 µM): 0.92
- relative viability (LC-2-ad; first compound 0.3162 µM): 0.932
- relative viability (LC-2-ad; first compound 1 µM): 0.815
- relative viability (NCI-H1734; first compound 0.01 µM): 0.534
- relative viability (NCI-H1734; first compound 0.03162 µM): 0.593
- relative viability (NCI-H1734; first compound 0.1 µM): 0.52
- relative viability (NCI-H1734; first compound 0.3162 µM): 0.604
- relative viability (NCI-H1734; first compound 1 µM): 0.486
- relative viability (NCI-H522; first compound 0.01 µM): 0.772
- relative viability (NCI-H522; first compound 0.03162 µM): 0.831
- relative viability (NCI-H522; first compound 0.1 µM): 0.846
- relative viability (NCI-H522; first compound 0.3162 µM): 0.781
- relative viability (NCI-H522; first compound 1 µM): 0.88
- relative viability (LXF-289; first compound 0.01 µM): 1.07
- relative viability (LXF-289; first compound 0.03162 µM): 1.18
- relative viability (LXF-289; first compound 0.1 µM): 1.16
- relative viability (LXF-289; first compound 0.3162 µM): 0.946
- relative viability (LXF-289; first compound 1 µM): 0.956
- relative viability (NCI-H1792; first compound 0.01 µM): 0.817
- relative viability (NCI-H1792; first compound 0.03162 µM): 0.408
- relative viability (NCI-H1792; first compound 0.1 µM): 0.749
- relative viability (NCI-H1792; first compound 0.3162 µM): 0.673
- relative viability (NCI-H1792; first compound 1 µM): 0.586
- relative viability (NCI-H1755; first compound 0.01 µM): 0.429
- relative viability (NCI-H1755; first compound 0.03162 µM): 0.546
- relative viability (NCI-H1755; first compound 0.1 µM): 0.525
- relative viability (NCI-H1755; first compound 0.3162 µM): 0.421
- relative viability (NCI-H1755; first compound 1 µM): 0.365
- relative viability (PC-3 [JPC-3]; first compound 0.03162 µM): 0.822
- relative viability (PC-3 [JPC-3]; first compound 0.1 µM): 0.756
- relative viability (PC-3 [JPC-3]; first compound 0.3162 µM): 1.03
- relative viability (PC-3 [JPC-3]; first compound 1 µM): 0.639
